Drawing on patent US20220073554A1, “LINCOSAMIDE ANTIBIOTICS AND USES THEREOF” (President and Fellows of Harvard College, priority 2017, published 2022), this text covers MIC for four molecules.

In brackets after ≈: the same amount, converted by molar mass.

For the first assay, the system named is S. pyogenes MMX 946 Macrolide-Resistant. The experiment in a line: MIC against S. pyogenes MMX 946 Macrolide-Resistant. Type of assay: cell-based. Particulars: Streptococcus pyogenes; S. pyogenes MMX 946 Macrolide-Resistant (MacRes); read-out: MIC.
Consider `CSC1O[C@H]([C@H](NC(=O)[C@H]2NC[C@@H]3C=C(c4cccc(F)c4)CCO[C@@H]23)[C@H](C)Cl)C(O)[C@@H](O)[C@H]1O` (stereo partly drawn) [FSA-511071], for which the MIC was above 64 µg/mL.

On to `CSC1O[C@H]([C@H](NC(=O)[C@H]2NC[C@@H]3C=C(c4ccccc4F)CCO[C@@H]23)[C@H](C)Cl)C(O)[C@@H](O)[C@H]1O` (stereo partly drawn) [FSA-511073], for which the MIC was above 64 µg/mL.

A further assay relates to H. influenzae ATCC 49247. The experiment in a line: MIC against H. influenzae ATCC 49247. In kind it is cell-based. Particulars: Haemophilus influenzae, ATCC49247.
On to `CSC1O[C@H]([C@H](NC(=O)[C@H]2NC[C@@H]3CC(NCc4cccc(F)c4)CCO[C@H]32)[C@H](C)Cl)C(O)[C@@H](O)[C@H]1O` (stereo partly drawn) [FSA-510073], for which the MIC is above 64 µg/mL.

For the molecule `CSC1O[C@H]([C@H](NC(=O)[C@H]2NC[C@@H]3CCCCO[C@@H]32)[C@H](C)Cl)C(O)[C@@H](O)[C@H]1O` (stereo partly drawn) [FSA-504062], the MIC is above 64 µg/mL.

Staying with this assay, now noted: Haemophilus influenzae, ATCC49247; H. influenzae ATCC 49247; read-out: MIC.
For the molecule `CSC1O[C@H]([C@H](NC(=O)[C@H]2NC[C@@H]3C=C(c4cccc(F)c4)CCO[C@@H]23)[C@H](C)Cl)C(O)[C@@H](O)[C@H]1O` (stereo partly drawn) [FSA-511071], the MIC is above 64 µg/mL.

Turning to `CSC1O[C@H]([C@H](NC(=O)[C@H]2NC[C@@H]3C=C(c4ccccc4F)CCO[C@@H]23)[C@H](C)Cl)C(O)[C@@H](O)[C@H]1O` (stereo partly drawn) [FSA-511073], the MIC is above 64 µg/mL.

The next assay deals with S. pyogenes ATCC 19615. Briefly: MIC against S. pyogenes ATCC 19615. In kind it is cell-based. Particulars: Streptococcus pyogenes, ATCC19615; S. pyogenes ATCC 19615; read-out: MIC.
Consider `CSC1O[C@H]([C@H](NC(=O)[C@H]2NC[C@@H]3C=C(c4cccc(F)c4)CCO[C@@H]23)[C@H](C)Cl)C(O)[C@@H](O)[C@H]1O` (stereo partly drawn) [FSA-511071], for which the MIC came out at 0.5 µg/mL (≈ 0.942 µM).

Regarding `CSC1O[C@H]([C@H](NC(=O)[C@H]2NC[C@@H]3CC(NCc4cccc(F)c4)CCO[C@H]32)[C@H](C)Cl)C(O)[C@@H](O)[C@H]1O` (stereo partly drawn) [FSA-510073], the MIC was found to be 2 µg/mL (≈ 3.56 µM).

Another assay concerns S. pneumoniae MMX 3031 cMefA. The experiment in a line: MIC against S. pneumoniae MMX 3031 cMefA. Type of assay: cell-based. To be noted: Streptococcus pneumoniae, MMX3031CMEFA.
As to `CSC1O[C@H]([C@H](NC(=O)[C@H]2NC[C@@H]3C=C(c4cccc(F)c4)CCO[C@@H]23)[C@H](C)Cl)C(O)[C@@H](O)[C@H]1O` (stereo partly drawn) [FSA-511071], the MIC was 0.5 µg/mL (≈ 0.942 µM).

For the molecule `CSC1O[C@H]([C@H](NC(=O)[C@H]2NC[C@@H]3C=C(c4ccccc4F)CCO[C@@H]23)[C@H](C)Cl)C(O)[C@@H](O)[C@H]1O` (stereo partly drawn) [FSA-511073], the MIC was 12 µg/mL (≈ 22.6 µM).

A further assay deals with S. aureus MP-549 msr(a) USA 300. The experiment in a line: MIC against S. aureus MP-549 msr(a) USA 300. To be noted: Staphylococcus aureus, USA300, S. aureus MP-549 msr(a) USA 300. Type of assay: cell-based.
In the case of `CSC1O[C@H]([C@H](NC(=O)[C@H]2NC[C@@H]3C=C(c4cccc(F)c4)CCO[C@@H]23)[C@H](C)Cl)C(O)[C@@H](O)[C@H]1O` (stereo partly drawn) [FSA-511071], the MIC was found to be 1 µg/mL (≈ 1.88 µM).

In turn, `CSC1O[C@H]([C@H](NC(=O)[C@H]2NC[C@@H]3CCCCO[C@@H]32)[C@H](C)Cl)C(O)[C@@H](O)[C@H]1O` (stereo partly drawn) [FSA-504062] had an MIC of 1 µg/mL (≈ 2.28 µM).

For `CSC1O[C@H]([C@H](NC(=O)[C@H]2NC[C@@H]3C=C(c4ccccc4F)CCO[C@@H]23)[C@H](C)Cl)C(O)[C@@H](O)[C@H]1O` (stereo partly drawn) [FSA-511073], the MIC turned out to be 1 µg/mL (≈ 1.88 µM).

In the next assay the test system is E. faecalis ATCC 29212. The experiment in a line: MIC against E. faecalis ATCC 29212. Particulars: Enterococcus faecalis, ATCC29212. Type of assay: cell-based.
The molecule `CSC1O[C@H]([C@H](NC(=O)[C@H]2NC[C@@H]3CC(NCc4cccc(F)c4)CCO[C@H]32)[C@H](C)Cl)C(O)[C@@H](O)[C@H]1O` (stereo partly drawn) [FSA-510073] gave an MIC above 64 µg/mL.

Staying with this assay, now noted: Enterococcus faecalis, ATCC29212, read-out: MIC.
Consider `CSC1O[C@H]([C@H](NC(=O)[C@H]2NC[C@@H]3C=C(c4cccc(F)c4)CCO[C@@H]23)[C@H](C)Cl)C(O)[C@@H](O)[C@H]1O` (stereo partly drawn) [FSA-511071], for which the MIC is 4 µg/mL (≈ 7.53 µM).

`CSC1O[C@H]([C@H](NC(=O)[C@H]2NC[C@@H]3C=C(c4ccccc4F)CCO[C@@H]23)[C@H](C)Cl)C(O)[C@@H](O)[C@H]1O` (stereo partly drawn) [FSA-511073]: the MIC was found to be 4 µg/mL (≈ 7.53 µM).

Another assay relates to S. aureus MMX 3035 cErmA. The experiment in a line: MIC against S. aureus MMX 3035 cErmA. In kind it is cell-based. To be noted: Staphylococcus aureus, MMX3035CERMA; S. aureus MMX 3035 cErmA; read-out: MIC.
For the molecule `CSC1O[C@H]([C@H](NC(=O)[C@H]2NC[C@@H]3C=C(c4cccc(F)c4)CCO[C@@H]23)[C@H](C)Cl)C(O)[C@@H](O)[C@H]1O` (stereo partly drawn) [FSA-511071], the MIC was above 64 µg/mL.

For the molecule `CSC1O[C@H]([C@H](NC(=O)[C@H]2NC[C@@H]3C=C(c4ccccc4F)CCO[C@@H]23)[C@H](C)Cl)C(O)[C@@H](O)[C@H]1O` (stereo partly drawn) [FSA-511073], the MIC was above 64 µg/mL.

The subject of another assay is E. coli MP-9 ΔTolC. The experiment in a line: MIC against E. coli MP-9 ΔTolC. In kind it is cell-based. Particulars: Escherichia coli.
The molecule `CSC1O[C@H]([C@H](NC(=O)[C@H]2NC[C@@H]3CC(NCc4cccc(F)c4)CCO[C@H]32)[C@H](C)Cl)C(O)[C@@H](O)[C@H]1O` (stereo partly drawn) [FSA-510073] displayed an MIC above 64 µg/mL.

`CSC1O[C@H]([C@H](NC(=O)[C@H]2NC[C@@H]3CCCCO[C@@H]32)[C@H](C)Cl)C(O)[C@@H](O)[C@H]1O` (stereo partly drawn) [FSA-504062] yielded an MIC above 64 µg/mL.

The test system of a further assay is S. pneumoniae ATCC 49619. Briefly: MIC against S. pneumoniae ATCC 49619. Type of assay: cell-based. To be noted: Streptococcus pneumoniae, ATCC49619; S. pneumoniae ATCC 49619; read-out: MIC.
In the case of `CSC1O[C@H]([C@H](NC(=O)[C@H]2NC[C@@H]3CC(NCc4cccc(F)c4)CCO[C@H]32)[C@H](C)Cl)C(O)[C@@H](O)[C@H]1O` (stereo partly drawn) [FSA-510073], the MIC is 8 µg/mL (≈ 14.2 µM).

The test system of the next assay is S. aureus ATCC 29213. Briefly: MIC against S. aureus ATCC 29213. Particulars: Staphylococcus aureus, ATCC29213, S. aureus ATCC 29213; read-out: MIC. Type of assay: cell-based.
As to `CSC1O[C@H]([C@H](NC(=O)[C@H]2NC[C@@H]3C=C(c4cccc(F)c4)CCO[C@@H]23)[C@H](C)Cl)C(O)[C@@H](O)[C@H]1O` (stereo partly drawn) [FSA-511071], the MIC was 2 µg/mL (≈ 3.77 µM).

Regarding `CSC1O[C@H]([C@H](NC(=O)[C@H]2NC[C@@H]3CCCCO[C@@H]32)[C@H](C)Cl)C(O)[C@@H](O)[C@H]1O` (stereo partly drawn) [FSA-504062], the MIC was determined as 2 µg/mL (≈ 4.56 µM).

With `CSC1O[C@H]([C@H](NC(=O)[C@H]2NC[C@@H]3C=C(c4ccccc4F)CCO[C@@H]23)[C@H](C)Cl)C(O)[C@@H](O)[C@H]1O` (stereo partly drawn) [FSA-511073], the MIC is 1 µg/mL (≈ 1.88 µM).

The next assay relates to K. pneumoniae ATCC 10031. The experiment in a line: MIC against K. pneumoniae ATCC 10031. Type of assay: cell-based. To be noted: Klebsiella pneumoniae, ATCC10031.
In the case of `CSC1O[C@H]([C@H](NC(=O)[C@H]2NC[C@@H]3CC(NCc4cccc(F)c4)CCO[C@H]32)[C@H](C)Cl)C(O)[C@@H](O)[C@H]1O` (stereo partly drawn) [FSA-510073], the MIC was above 64 µg/mL.

For the molecule `CSC1O[C@H]([C@H](NC(=O)[C@H]2NC[C@@H]3CCCCO[C@@H]32)[C@H](C)Cl)C(O)[C@@H](O)[C@H]1O` (stereo partly drawn) [FSA-504062], the MIC is above 64 µg/mL.

The next assay has as its system E. coli ATCC 25922. Briefly: MIC against E. coli ATCC 25922. Type of assay: cell-based. To be noted: Escherichia coli, ATCC25922.
`CSC1O[C@H]([C@H](NC(=O)[C@H]2NC[C@@H]3CC(NCc4cccc(F)c4)CCO[C@H]32)[C@H](C)Cl)C(O)[C@@H](O)[C@H]1O` (stereo partly drawn) [FSA-510073] had an MIC above 64 µg/mL.

Regarding `CSC1O[C@H]([C@H](NC(=O)[C@H]2NC[C@@H]3CCCCO[C@@H]32)[C@H](C)Cl)C(O)[C@@H](O)[C@H]1O` (stereo partly drawn) [FSA-504062], the MIC was above 64 µg/mL.

Staying with this assay, now noted: Escherichia coli, ATCC25922; E. coli ATCC 25922; read-out: MIC.
In the case of `CSC1O[C@H]([C@H](NC(=O)[C@H]2NC[C@@H]3C=C(c4cccc(F)c4)CCO[C@@H]23)[C@H](C)Cl)C(O)[C@@H](O)[C@H]1O` (stereo partly drawn) [FSA-511071], the MIC was above 64 µg/mL.

For the molecule `CSC1O[C@H]([C@H](NC(=O)[C@H]2NC[C@@H]3C=C(c4ccccc4F)CCO[C@@H]23)[C@H](C)Cl)C(O)[C@@H](O)[C@H]1O` (stereo partly drawn) [FSA-511073], the MIC was above 64 µg/mL.

A further assay relates to S. aureus BAA 977 iErmA. The experiment in a line: MIC against S. aureus BAA 977 iErmA. Type of assay: cell-based. Particulars: Staphylococcus aureus, BAA977.
In turn, `CSC1O[C@H]([C@H](NC(=O)[C@H]2NC[C@@H]3C=C(c4cccc(F)c4)CCO[C@@H]23)[C@H](C)Cl)C(O)[C@@H](O)[C@H]1O` (stereo partly drawn) [FSA-511071] yielded an MIC of 2 µg/mL (≈ 3.77 µM).

`CSC1O[C@H]([C@H](NC(=O)[C@H]2NC[C@@H]3C=C(c4ccccc4F)CCO[C@@H]23)[C@H](C)Cl)C(O)[C@@H](O)[C@H]1O` (stereo partly drawn) [FSA-511073] returned an MIC of 1 µg/mL (≈ 1.88 µM).

In another assay the test system is E. faecalis MMX 847 Macrolide-Resistant. Briefly: MIC against E. faecalis MMX 847 Macrolide-Resistant. In kind it is cell-based. To be noted: Enterococcus faecalis; E. faecalis MMX 847 Macrolide-Resistant (MacRes); read-out: MIC.
Consider `CSC1O[C@H]([C@H](NC(=O)[C@H]2NC[C@@H]3C=C(c4cccc(F)c4)CCO[C@@H]23)[C@H](C)Cl)C(O)[C@@H](O)[C@H]1O` (stereo partly drawn) [FSA-511071], for which the MIC was above 64 µg/mL.

With `CSC1O[C@H]([C@H](NC(=O)[C@H]2NC[C@@H]3C=C(c4ccccc4F)CCO[C@@H]23)[C@H](C)Cl)C(O)[C@@H](O)[C@H]1O` (stereo partly drawn) [FSA-511073], the MIC is above 64 µg/mL.

For another assay, the system named is E. coli MP-74 LptD mutant. The experiment in a line: MIC against E. coli MP-74 LptD mutant. In kind it is cell-based. To be noted: Escherichia coli.
For the molecule `CSC1O[C@H]([C@H](NC(=O)[C@H]2NC[C@@H]3CC(NCc4cccc(F)c4)CCO[C@H]32)[C@H](C)Cl)C(O)[C@@H](O)[C@H]1O` (stereo partly drawn) [FSA-510073], the MIC was above 64 µg/mL.

For the molecule `CSC1O[C@H]([C@H](NC(=O)[C@H]2NC[C@@H]3CCCCO[C@@H]32)[C@H](C)Cl)C(O)[C@@H](O)[C@H]1O` (stereo partly drawn) [FSA-504062], the MIC was above 64 µg/mL.
